{
  "source": "ChEMBL document CHEMBL1201862",
  "about": "“PubChem BioAssay data set” (2004)",
  "key": {"[1]": {"biological_target": "Signal transducer and activator of transcription 3 (Homo sapiens, UniProt P40763)", "sequence (P40763 whole entry)": "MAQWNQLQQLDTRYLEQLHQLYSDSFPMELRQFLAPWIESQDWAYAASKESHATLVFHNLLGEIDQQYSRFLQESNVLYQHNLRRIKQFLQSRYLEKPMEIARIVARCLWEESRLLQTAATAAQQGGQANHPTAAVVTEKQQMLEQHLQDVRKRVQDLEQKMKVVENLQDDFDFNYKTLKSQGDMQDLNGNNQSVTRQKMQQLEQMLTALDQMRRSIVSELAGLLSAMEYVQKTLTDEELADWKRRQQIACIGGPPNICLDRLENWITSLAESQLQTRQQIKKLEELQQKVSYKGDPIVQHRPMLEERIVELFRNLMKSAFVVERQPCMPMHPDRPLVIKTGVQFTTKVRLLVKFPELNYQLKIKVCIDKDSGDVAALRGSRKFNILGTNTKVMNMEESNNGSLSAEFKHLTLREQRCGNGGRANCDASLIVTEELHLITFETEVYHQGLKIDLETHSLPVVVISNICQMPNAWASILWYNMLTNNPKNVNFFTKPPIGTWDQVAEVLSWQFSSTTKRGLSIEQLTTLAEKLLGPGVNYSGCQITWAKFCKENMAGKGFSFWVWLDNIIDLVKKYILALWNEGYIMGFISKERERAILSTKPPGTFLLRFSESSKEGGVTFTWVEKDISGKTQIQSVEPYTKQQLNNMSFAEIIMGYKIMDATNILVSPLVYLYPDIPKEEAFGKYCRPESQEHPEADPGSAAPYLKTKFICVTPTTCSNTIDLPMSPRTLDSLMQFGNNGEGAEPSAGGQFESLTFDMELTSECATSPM", "test": "STAT3 blockade with qPCR and toxicity readouts – cell-based, STAT1 panel, cytotoxicity, late-stage follow-up, panel member STAT3 Inhibition (AID 2078)"}, "[2]": {"biological_target": "Signal transducer and activator of transcription 1-alpha/beta (Homo sapiens, UniProt P42224)", "sequence (P42224 whole entry)": "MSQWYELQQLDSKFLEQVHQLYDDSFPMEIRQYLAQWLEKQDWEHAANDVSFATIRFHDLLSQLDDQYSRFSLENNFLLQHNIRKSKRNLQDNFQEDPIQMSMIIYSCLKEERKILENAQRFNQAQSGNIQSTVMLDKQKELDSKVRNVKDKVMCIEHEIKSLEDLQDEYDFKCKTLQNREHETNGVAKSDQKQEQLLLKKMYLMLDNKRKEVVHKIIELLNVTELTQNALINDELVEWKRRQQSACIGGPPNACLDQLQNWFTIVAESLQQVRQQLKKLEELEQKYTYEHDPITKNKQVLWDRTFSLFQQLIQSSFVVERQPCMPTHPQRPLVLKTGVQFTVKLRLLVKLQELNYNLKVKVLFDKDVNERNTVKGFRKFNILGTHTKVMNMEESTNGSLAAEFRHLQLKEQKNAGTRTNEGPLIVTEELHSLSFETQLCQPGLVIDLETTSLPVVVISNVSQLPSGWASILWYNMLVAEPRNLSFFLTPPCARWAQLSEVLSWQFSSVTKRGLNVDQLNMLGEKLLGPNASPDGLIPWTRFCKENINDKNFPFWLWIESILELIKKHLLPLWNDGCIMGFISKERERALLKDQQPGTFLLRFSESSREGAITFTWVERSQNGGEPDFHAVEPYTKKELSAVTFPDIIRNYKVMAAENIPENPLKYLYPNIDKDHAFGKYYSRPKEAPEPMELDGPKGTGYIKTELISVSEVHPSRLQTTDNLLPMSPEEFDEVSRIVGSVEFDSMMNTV", "test": "STAT3 blockade with qPCR and toxicity readouts – cell-based, STAT1 panel, cytotoxicity, late-stage follow-up, panel member STAT1 Inhibition (AID 2078)"}, "Hexokinase HKDC1": {"biological_target": "T1, Hexokinase HKDC1 (Homo sapiens, UniProt Q2TB90)", "T1 sequence (Q2TB90 whole entry)": "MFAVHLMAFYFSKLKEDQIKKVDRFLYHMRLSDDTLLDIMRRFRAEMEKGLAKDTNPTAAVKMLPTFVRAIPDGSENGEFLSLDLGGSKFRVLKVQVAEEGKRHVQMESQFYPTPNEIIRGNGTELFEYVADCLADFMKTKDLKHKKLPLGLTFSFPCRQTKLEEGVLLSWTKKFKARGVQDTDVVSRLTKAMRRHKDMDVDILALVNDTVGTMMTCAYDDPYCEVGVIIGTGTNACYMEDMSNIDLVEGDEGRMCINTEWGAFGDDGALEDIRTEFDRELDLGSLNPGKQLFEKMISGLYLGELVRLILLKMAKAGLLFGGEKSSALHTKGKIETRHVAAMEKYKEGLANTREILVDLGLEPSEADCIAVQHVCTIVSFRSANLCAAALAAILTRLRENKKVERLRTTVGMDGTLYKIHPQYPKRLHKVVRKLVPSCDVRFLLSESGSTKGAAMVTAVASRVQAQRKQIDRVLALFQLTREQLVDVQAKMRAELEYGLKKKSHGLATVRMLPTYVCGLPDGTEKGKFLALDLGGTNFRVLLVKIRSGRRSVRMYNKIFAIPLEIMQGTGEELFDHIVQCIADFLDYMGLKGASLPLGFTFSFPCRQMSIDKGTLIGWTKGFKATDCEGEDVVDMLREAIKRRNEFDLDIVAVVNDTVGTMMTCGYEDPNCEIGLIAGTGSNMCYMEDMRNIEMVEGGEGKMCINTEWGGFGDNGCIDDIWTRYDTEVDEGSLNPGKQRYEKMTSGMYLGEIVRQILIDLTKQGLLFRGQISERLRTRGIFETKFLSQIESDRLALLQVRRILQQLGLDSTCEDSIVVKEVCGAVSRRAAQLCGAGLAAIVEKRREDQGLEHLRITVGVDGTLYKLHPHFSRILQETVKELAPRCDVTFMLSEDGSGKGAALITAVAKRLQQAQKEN", "test": "activation of HKDC1 glucose phosphorylation – biochemical, W721R variant, dose response (AID 504730)", "type": "functional"}, "Hexokinase-1": {"biological_target": "Hexokinase-1 (Homo sapiens, UniProt P19367)", "sequence (P19367 whole entry)": "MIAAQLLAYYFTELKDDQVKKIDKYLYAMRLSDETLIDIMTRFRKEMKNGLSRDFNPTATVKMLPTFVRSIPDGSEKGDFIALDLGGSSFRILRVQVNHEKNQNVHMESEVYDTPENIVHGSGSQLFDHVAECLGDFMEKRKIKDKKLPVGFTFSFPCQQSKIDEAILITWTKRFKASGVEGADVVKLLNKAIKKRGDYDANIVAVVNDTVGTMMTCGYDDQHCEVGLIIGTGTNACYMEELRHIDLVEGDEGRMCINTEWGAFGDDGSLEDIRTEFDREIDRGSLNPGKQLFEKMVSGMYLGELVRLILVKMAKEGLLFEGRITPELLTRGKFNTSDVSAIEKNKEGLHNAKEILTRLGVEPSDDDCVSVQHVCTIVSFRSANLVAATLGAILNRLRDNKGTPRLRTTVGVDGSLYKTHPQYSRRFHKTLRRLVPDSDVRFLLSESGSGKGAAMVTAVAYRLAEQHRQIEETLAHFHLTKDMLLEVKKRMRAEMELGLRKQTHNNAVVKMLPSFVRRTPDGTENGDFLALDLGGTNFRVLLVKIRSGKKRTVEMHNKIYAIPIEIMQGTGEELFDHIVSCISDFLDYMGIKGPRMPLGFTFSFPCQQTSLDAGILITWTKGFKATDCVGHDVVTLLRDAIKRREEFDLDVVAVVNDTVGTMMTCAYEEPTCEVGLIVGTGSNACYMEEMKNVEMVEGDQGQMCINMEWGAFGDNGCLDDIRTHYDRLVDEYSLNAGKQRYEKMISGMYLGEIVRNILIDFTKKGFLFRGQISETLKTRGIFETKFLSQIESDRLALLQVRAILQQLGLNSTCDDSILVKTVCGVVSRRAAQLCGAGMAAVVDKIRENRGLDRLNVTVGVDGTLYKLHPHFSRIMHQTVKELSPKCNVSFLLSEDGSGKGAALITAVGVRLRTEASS", "test": "HK1 enzyme activation by HKDC1 hits – biochemical, selectivity assay for HKDC1 activator project, dose response (AID 504762)", "type": "functional"}, "Nonstructural protein 1": {"biological_target": "Nonstructural protein 1 (Influenza A virus, UniProt Q194T2)", "sequence (Q194T2 whole entry)": "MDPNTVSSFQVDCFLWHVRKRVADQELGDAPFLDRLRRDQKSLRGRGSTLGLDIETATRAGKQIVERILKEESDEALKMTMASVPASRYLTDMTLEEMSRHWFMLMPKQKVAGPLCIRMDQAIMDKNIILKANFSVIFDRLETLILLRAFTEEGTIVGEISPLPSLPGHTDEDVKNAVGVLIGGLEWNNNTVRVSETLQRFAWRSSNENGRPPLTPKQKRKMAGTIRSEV", "type": "functional, Influenza A virus (A/California/07/2009(H1N1))"}, "HEK293 [3]": {"system": "HEK293", "test": "EBV LMP1 TES2 canonical NF-kB signalling blockers – cell-based, HEK293, luciferase, cherry-pick, dose response (AID 588343)", "type": "functional", "conditions": "Homo sapiens"}, "[4]": {"biological_target": "Heat shock protein HSP 90-alpha (Homo sapiens, UniProt P07900)", "type": "functional, organism-based"}, "[5]": {"biological_target": "ATP-dependent molecular chaperone HSP82 (Candida albicans (strain WO-1) (Yeast), UniProt C4YTQ8)", "sequence (C4YTQ8 whole entry)": "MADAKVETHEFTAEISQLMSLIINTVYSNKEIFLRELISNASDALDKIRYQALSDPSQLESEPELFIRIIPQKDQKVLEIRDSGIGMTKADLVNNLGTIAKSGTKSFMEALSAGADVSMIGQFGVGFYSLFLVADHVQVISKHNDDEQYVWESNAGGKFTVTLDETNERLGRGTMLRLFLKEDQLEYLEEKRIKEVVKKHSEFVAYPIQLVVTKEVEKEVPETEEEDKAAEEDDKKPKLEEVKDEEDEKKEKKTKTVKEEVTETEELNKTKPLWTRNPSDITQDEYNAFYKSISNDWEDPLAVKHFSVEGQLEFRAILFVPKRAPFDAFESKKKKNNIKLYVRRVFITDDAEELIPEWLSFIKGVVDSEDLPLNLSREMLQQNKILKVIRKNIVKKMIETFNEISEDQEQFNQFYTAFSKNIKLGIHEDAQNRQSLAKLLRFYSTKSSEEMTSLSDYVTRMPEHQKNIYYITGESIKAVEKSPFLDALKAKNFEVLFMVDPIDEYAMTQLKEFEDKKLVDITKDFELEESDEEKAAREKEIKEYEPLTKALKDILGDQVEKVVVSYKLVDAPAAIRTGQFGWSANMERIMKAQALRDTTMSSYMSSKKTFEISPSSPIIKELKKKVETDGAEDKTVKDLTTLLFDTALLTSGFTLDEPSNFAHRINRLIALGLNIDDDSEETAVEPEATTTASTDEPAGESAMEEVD", "test": "steroid-induced GRE reporter decrease in yeast – S. cerevisiae, luminescence, Hsp90 inhibitor project, dose response (AID 2400);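 also: beta-galactosidase luminescence from glucocorticoid response element reporter as proxy for Hsp90 function; inhibitor potency where signal loss means Hsp90 inhibition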", "type": "functional, cell-based"}, "[6]": {"test": "HepG2 cell cytotoxicity, dose response, cytotoxicity control for non-replicating M. tuberculosis project (AID 489018)", "type": "functional", "conditions": "Mycobacterium tuberculosis"}, "[7]": {"test": "NIH-3T3 fibroblast cytotoxicity, dose response, cytotoxicity control, cell-based, fluorescence, Alamar Blue, secondary assay (AID 2327);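 also: NIH-3T3 mouse fibroblasts cultured with fluconazole at 8 µg/mL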", "type": "functional"}, "cells [8]": {"test": "cells", "type": "functional, cell-based"}, "cells [9]": {"test": "cells", "type": "functional, cell-based", "remark": "listed apart in the source"}, "[10]": {"test": "fluconazole-exposed Candida albicans growth modulators – fluorescence, retest, confirmation (AID 2467)", "type": "functional, cell-based"}, "[11]": {"test": "THP-1 cell cytotoxicity, dose response, cytotoxicity control for non-replicating M. tuberculosis project (AID 489025)", "type": "functional"}, "[12]": {"test": "Vero E6 cell cytotoxicity, dose response, cytotoxicity control for non-replicating M. tuberculosis project, secondary assay (AID 492998)", "type": "functional, VeroE6", "conditions": "Vero C1008"}, "INS1": {"system": "INS1", "test": "INS-1E survival protection against cytokine death – cell-based, luminescence, retest, dose response (AID 449756);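 also: cell death triggered by IL-1 beta plus TNF-alpha plus IFN-gamma mixture; protective hits raise ATP signal compared with cytokine alone wells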", "type": "functional", "conditions": "Rattus norvegicus"}, "[13]": {"biological_target": "T2, Serine/threonine-protein phosphatase (Candida dubliniensis (strain CD36 / CBS 7987 / NCPF 3949 / NRRLY-17841) (Yeast), UniProt B9W6M3)", "T2 sequence (B9W6M3 whole entry)": "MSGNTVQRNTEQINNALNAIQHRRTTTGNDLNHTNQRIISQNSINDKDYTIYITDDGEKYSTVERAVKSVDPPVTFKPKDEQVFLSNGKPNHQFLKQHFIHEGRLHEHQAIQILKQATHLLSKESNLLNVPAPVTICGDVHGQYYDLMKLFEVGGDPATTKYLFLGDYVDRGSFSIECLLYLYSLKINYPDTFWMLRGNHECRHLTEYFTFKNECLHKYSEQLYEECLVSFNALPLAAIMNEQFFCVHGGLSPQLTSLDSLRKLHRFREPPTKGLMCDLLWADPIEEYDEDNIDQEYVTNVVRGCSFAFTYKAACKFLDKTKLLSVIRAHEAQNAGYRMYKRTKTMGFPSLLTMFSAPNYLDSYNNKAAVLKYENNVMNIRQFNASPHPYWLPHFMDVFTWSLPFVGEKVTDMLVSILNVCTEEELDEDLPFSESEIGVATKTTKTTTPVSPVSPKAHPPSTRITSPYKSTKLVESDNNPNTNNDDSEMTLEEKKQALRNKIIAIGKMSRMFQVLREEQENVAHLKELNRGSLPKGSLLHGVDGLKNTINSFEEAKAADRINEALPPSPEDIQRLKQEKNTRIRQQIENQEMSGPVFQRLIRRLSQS", "test": "blockers of CaCl2-induced CDRE-lacZ signaling – S. cerevisiae, luminescence, secondary, dose response (AID 2388);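 also: yeast reporter cells carrying a calcineurin-responsive lacZ construct stimulated with calcium chloride; luminescent beta-galactosidase reporter signal in whole cells rather than isolated phosphatase activity; potency for inhibition where a drop in reporter signal means calcineurin blockade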", "type": "functional, cell-based"}, "HEK293 [14]": {"system": "HEK293", "test": "NOD2 signaling inhibitors in MDP-stimulated cells, cell-based, uHTS, luminescence (AID 2001)", "type": "functional", "conditions": "Homo sapiens"}, "HEK293 [15]": {"system": "HEK293", "test": "cells", "type": "functional, cell-based", "conditions": "Homo sapiens"}, "[16]": {"biological_target": "T3, Heat shock factor protein 1 (Mus musculus, UniProt P38532)", "T3 sequence (P38532 whole entry)": "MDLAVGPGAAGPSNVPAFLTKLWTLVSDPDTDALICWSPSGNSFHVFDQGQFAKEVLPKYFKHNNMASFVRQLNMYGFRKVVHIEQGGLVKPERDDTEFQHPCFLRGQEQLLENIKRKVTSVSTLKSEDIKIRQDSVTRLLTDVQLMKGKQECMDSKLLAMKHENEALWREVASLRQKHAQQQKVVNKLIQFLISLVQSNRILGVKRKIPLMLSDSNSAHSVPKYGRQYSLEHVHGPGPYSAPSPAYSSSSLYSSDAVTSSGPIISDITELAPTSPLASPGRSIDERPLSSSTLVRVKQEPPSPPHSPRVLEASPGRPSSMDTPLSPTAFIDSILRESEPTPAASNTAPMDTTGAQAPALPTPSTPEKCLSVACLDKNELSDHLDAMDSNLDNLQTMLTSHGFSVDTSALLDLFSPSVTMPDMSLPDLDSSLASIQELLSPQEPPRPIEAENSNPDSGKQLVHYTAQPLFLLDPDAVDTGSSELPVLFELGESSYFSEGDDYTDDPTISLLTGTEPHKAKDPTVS", "test": "decrease of HSF1-responsive luciferase luminescence – cell-based, NIH3T3, dose retest, confirmation (AID 2382);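 also: NIH3T3 fibroblasts with HSF1-driven luciferase reporter stressed by proteasome inhibitor MG132; luminescence from HSF1-driven luciferase expression after 8 hours of MG132 stress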", "type": "functional"}, "[17]": {"biological_target": "Nucleotide-binding oligomerization domain-containing protein 2 (Homo sapiens, UniProt Q9HC29)", "sequence (Q9HC29 whole entry, the tested form may be a part)": "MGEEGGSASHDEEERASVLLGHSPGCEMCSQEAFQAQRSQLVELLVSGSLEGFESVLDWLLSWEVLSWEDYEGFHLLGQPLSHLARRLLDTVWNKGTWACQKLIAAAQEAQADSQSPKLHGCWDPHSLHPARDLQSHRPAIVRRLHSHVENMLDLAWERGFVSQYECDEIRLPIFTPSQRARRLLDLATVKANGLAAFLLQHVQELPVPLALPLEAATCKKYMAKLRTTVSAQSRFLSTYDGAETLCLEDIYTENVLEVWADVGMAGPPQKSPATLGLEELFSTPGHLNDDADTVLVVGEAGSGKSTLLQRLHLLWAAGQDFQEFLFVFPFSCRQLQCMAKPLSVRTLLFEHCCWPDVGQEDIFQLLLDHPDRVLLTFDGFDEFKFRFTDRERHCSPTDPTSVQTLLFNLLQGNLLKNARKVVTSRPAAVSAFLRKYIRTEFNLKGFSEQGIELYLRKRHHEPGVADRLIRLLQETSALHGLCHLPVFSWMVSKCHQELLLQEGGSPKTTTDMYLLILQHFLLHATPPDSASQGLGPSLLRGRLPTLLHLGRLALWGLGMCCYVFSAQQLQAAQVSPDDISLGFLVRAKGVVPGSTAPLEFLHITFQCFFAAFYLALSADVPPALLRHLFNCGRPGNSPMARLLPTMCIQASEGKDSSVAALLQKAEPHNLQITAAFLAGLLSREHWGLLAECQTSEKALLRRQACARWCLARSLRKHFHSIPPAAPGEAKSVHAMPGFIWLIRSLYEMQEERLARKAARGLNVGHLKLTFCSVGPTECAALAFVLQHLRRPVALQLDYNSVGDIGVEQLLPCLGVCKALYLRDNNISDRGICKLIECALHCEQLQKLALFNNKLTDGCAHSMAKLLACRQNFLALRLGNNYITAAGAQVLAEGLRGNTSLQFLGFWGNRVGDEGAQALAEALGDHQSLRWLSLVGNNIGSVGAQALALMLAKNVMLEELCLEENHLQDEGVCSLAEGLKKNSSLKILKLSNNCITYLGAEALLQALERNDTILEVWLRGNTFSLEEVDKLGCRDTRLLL", "test": "inhibition of NOD2-driven NF-kB reporter – cell-based, luminescence, uHTS, HEK293 (AID 1566)", "type": "functional"}, "HEK293 [18]": {"system": "HEK293", "test": "cells", "type": "functional, cell-based", "conditions": "Homo sapiens", "remark": "listed apart in the source"}, "HEK293 [19]": {"system": "HEK293", "test": "cells", "type": "functional, cell-based", "conditions": "Homo sapiens", "remark": "listed apart in the source"}, "HEK293 [20]": {"system": "HEK293", "test": "inhibition of NOD1-driven NF-kB reporter – cell-based, luminescence, uHTS, primary screen (AID 1578)", "type": "functional", "conditions": "Homo sapiens"}},
  "note": "Activity calls are given as the source filed them.",
  "data": [
    {"smiles": "COC(=O)c1cc2c(N3CCC(Cc4ccccc4)CC3)ncnc2s1", "values": [
      {"measurement": "IC50", "setting": "[1]", "value": "> 18.6 µM (inactive)"},
      {"measurement": "IC50", "setting": "[2]", "value": "> 55.7 µM (inactive)"}
    ]},
    {"smiles": "CC(=NNC(=S)Nc1cccc(Cl)c1)c1ccccn1", "values": [
      {"measurement": "EC50", "setting": "Hexokinase HKDC1", "value": "0.615 µM (active)"},
      {"measurement": "EC50", "setting": "Hexokinase-1", "value": "> 80 µM (inactive)"},
      {"measurement": "IC50", "setting": "Nonstructural protein 1", "value": "15.4 µM (active)"},
      {"measurement": "AC50", "setting": "HEK293 [3]", "value": "0.341 µM (active)"},
      {"measurement": "AC50", "setting": "[4]", "value": "16.2 µM (active)"}
    ]},
    {"smiles": "O=C(N/N=C/c1ccccc1O)c1cccc(C(F)(F)F)c1", "values": [
      {"measurement": "EC50", "setting": "[5]", "value": "> 150 µM (inactive)"},
      {"measurement": "CC50", "setting": "[6]", "value": "6.7 µM (active)"},
      {"measurement": "EC50", "setting": "[7]", "value": "> 150 µM (inactive)"},
      {"measurement": "EC50", "setting": "cells [8]", "value": "> 350 µM (not active)"},
      {"measurement": "EC50", "setting": "cells [9]", "value": "7.53 µM (active)"},
      {"measurement": "EC50", "setting": "[10]", "value": "1.39 µM (active)"},
      {"measurement": "CC50", "setting": "[11]", "value": "0.106 µM (active)"},
      {"measurement": "CC50", "setting": "[12]", "value": "3.65 µM (active)"},
      {"measurement": "AC50", "setting": "INS1", "value": "1.11 µM (active)"},
      {"measurement": "EC50", "setting": "[13]", "value": "> 180 µM (inactive)"}
    ]},
    {"smiles": "CCCOc1ccc(/C=N/NC(=S)Nc2ccccc2[N+](=O)[O-])c(O)c1", "values": [
      {"measurement": "IC50", "setting": "HEK293 [14]", "value": "0.233 µM (active)"},
      {"measurement": "EC50", "setting": "Hexokinase HKDC1", "value": "26.5 µM (inactive)"},
      {"measurement": "IC50", "setting": "HEK293 [15]", "value": "> 20 µM (inactive)"},
      {"measurement": "EC50", "setting": "Hexokinase-1", "value": "> 80 µM (inactive)"},
      {"measurement": "EC50", "setting": "[16]", "value": "11 µM (active)"},
      {"measurement": "EC50", "setting": "[17]", "value": "0.78 µM (active)"},
      {"measurement": "IC50", "setting": "HEK293 [18]", "value": "1.82 µM (active)"},
      {"measurement": "IC50", "setting": "HEK293 [19]", "value": "> 20 µM (inactive)"},
      {"measurement": "EC50", "setting": "HEK293 [20]", "value": "11.9 µM (active)"},
      {"measurement": "AC50", "setting": "INS1", "value": "1.28 µM (active)"}
    ]}
  ]
}
